Legend:
Format in all cases: in vivo
Spodoptera frugiperda = Spodoptera frugiperda spray test; conditions: in Zea mays, 168 h, read-out: activity (mortality)
Description: Spodoptera Fruaiperda—Spray Test
Solvent: 78.0 parts by weight acetone • 1.5 parts by weight dimethylformamide Emulsifier: alkylarylpolyglycol ether
(§1) To produce a suitable preparation of active compound, 1 part by weight of active compound is mixed with the stated amount of solvents and is diluted with water, containing an emulsifier concentration of 1000 ppm, to the desired concentration. Further test concentrations are prepared by dilution with emulsifier containing water.
Maize (Zea mays) leaf sections are sprayed with a preparation of the active ingredient of the desired concentration. Once dry, the leaf sections are infested with fall armyworm larvae (Spodoptera frugiperda).
After 7 days mortality in % is determined. 100% means all caterpillars have been killed and 0% means none of the caterpillars have been killed.

Rhipicephalus microplus [1] = test: Rhipicephalus (Boophilus) microplus injection test (BOOPMI Inj); conditions: 168 h, injection into adult engorged female ticks, egg deposition after 7 days, read-out: activity (efficacy: 100% means all eggs are infertile); for pest or weed control at 0.004 mg: application rate 4 μg/tick; for pest or weed control at 0.02 mg: application rate 20 μg/tick
Description: Rhipicephalus (Boophilus) Microplus—Injection Test (BOOPMI Inj)
Solvent: dimethyl sulfoxide
To produce a suitable preparation of active compound, 10 mg of active compound are dissolved in 0.5 mL solvent, and the concentrate is diluted with solvent to the desired concentration.
Five adult engorged female ticks (Rhipicephalus microplus) are injected with 1 μL compound solution into the abdomen. The ticks are transferred into replica plates and incubated in a climate chamber.
After 7 days egg deposition of fertile eggs is monitored. Eggs where fertility is not visible are stored in a climate chamber till hatching after about 42 days. An efficacy of 100% means all eggs are infertile; 0% means all eggs are fertile.

Diabrotica balteata = Diabrotica balteata spray test; conditions: 168 h, wheat seeds, larvae, after 7 days, read-out: activity (efficacy: 100% means all seedlings have grown up like in the untreated, uninfected control); for pest or weed control at 32 µg/disc, 100 g/ha: application rate 100 g/ha (=32 μg/well)
Description: Diabrotica balteata—Spray Test Solvent: 78.0 parts by weight of acetone • • 1.5 parts by weight of dimethylformamide Emulsifier: alkylarylpolyglycol ether
as §1, with “solvent,” for “solvents”, “and the concentrate” for “and”
Soaked wheat seeds (Triticum aestivum) are placed in a multiple well plate filled with agar and some water and are incubated for 1 day to germinate (5 seeds per well). The germinated wheat seeds are sprayed with a test solution containing the desired concentration of the active ingredient. Afterwards each unit is infected with 10-20 larvae of the banded cucumber beetle (Diabrotica balteata).
After 7 days efficacy in % is determined. 100% means all the seedlings have grown up like in the untreated, uninfected control; 0% means none of the seedlings have grown.

Rhipicephalus microplus [2] = test: Rhipicephalus (Boophilus) microplus in-vitro contact test, larval cattle tick, strain Parkhurst (BOOPMI Cont); conditions: application rate 5 μg/cm^2 (=500 g/ha), tick larvae, after 48 hours, read-out: activity (efficacy: 100% means all larvae are dead or moribund)
Description: Rhipicephalus (Boophilus) Microplus—In-Vitro Contact Tests Larval Cattle Tick (Strain Parkhurst, Resistant Against Synthetic Pyrethroids) (BOOPMI Cont)
9 mg compound is solved in 1 mL acetone and diluted with acetone to the desired concentration. 250 μL of the test solution is filled in 25 mL glass test tubes and homogeneously distributed on the inner walls by rotation and tilting on a shaking device (2 h at 30 rpm). With a compound concentration of 900 ppm, an inner surface of 44.7 cm^2 and a homogeneous distribution, a dose of 5 μg/cm^2 is achieved.
After the solvent has evaporated, each test tube is filled with 20-50 cattle tick larvae (Rhipicephalus microplus), closed with a perforated lid and incubated in a horizontal position at 85% relative humidity and 27° C. in an incubator. After 48 hours efficacy is determined. The larvae are patted on the ground of the tubes and negative geotactic behavior is recorded.
An efficacy of 100% means all larvae are dead or moribund; 0% means no larvae are dead or moribund.

Ctenocephalides felis = Ctenocephalides felis oral test (CTECFE Oral); conditions: 48 h, read-out: activity (mortality)
Description: Ctenocephalides felis—Oral Test (CTECFE Oral) Solvent: dimethyl sulfoxide
To produce a suitable preparation of active compound, 10 mg of active compound are dissolved in 0.5 mL solvent, and the concentrate is diluted with cattle blood to the desired concentration.
Approximately 20 adult unfed cat fleas (Ctenocephalides felis) are placed in flea chambers. The blood chamber, sealed with parafilm on the bottom, are filled with cattle blood supplied with compound solution and placed on the gauze covered top of the flea chamber, so that the fleas are able to suck the blood. The blood chamber is heated to 37° C. whereas the flea chamber is kept at room temperature.
After 2 days mortality in % is determined. 100% means all the fleas have been killed; 0% means none of the fleas have been killed.

Myzus persicae = Myzus persicae oral test; conditions: 120 h, read-out: activity (mortality)
Description: Myzus persicae—Oral Test Solvent: 100 parts by weight acetone
To produce a suitable preparation of active compound, 1 part by weight of active compound is mixed with the stated amount of solvent, and the concentrate is diluted with water to the desired concentration.
50 μL compound solution is filled in microtiter plates and 150 μL IPL41 insect medium (33%+15% sugar) is added to obtain a total volume of 200 μL per well. Afterwards the plates are sealed with parafilm through which a mixed population of the green peach aphid (Myzus persicae) can suck on the compound preparation.
After 5 days mortality in % is determined. 100% means all aphids have been killed and 0% means none of the aphids have been killed.

[3] = tested on: Musca domestica strain WHO—N; test: Musca domestica test (MUSCDO surface treatment & contact assay); conditions: surface concentration 20 mg/m^2, glazed tile, exposure 30 minutes, 24 hours after contact, read-out: efficacy (mortality)
Description: Musca domestica Test (MUSCDO Surface Treatment & Contact Assay) Solvent: Aceton+2000 ppm rapeseed oil methyl ester (RME)
(§2) In order to produce a sufficient, active ingredient containing solution it is necessary to solve the test compound in the solvent-mix (acetone at 2 mg/ml/RME 2000 ppm). This solution is pipetted onto a glazed tile and after evaporation of the acetone, adult flies of the species Musca domestica strain WHO—N are placed onto the dried surface. The exposure time is 30 minutes. Mortality in percent (%) is determined 24 hours after contact of the insects to the treated surface. 100% mortality means that all tested insects are dead, whereas 0% means that no insect died.

[4] = tested on: Aedes aegypti strain MONHEIM; test: Aedes aegypti test (AEDSAE surface treatment & contact assay); conditions: exposure 30 minutes, 24 hours after contact, read-out: efficacy (mortality); for mortality at 20 mg/m2: surface concentration 20 mg/m^2, glazed tile; for mortality at 4 mg/m2: surface concentration 4 mg/m^2, glazed tile
Description: Aedes aegypti Test (AEDSAE Surface Treatment & Contact Assay) Solvent: Aceton+2000 ppm rapeseed oil methyl ester (RME)
as §2, with “mosquitoes” for “flies”, “Aedes aegypti” for “Musca domestica”, “MONHEIM” for “WHO—N”

Rhipicephalus sanguineus = Rhipicephalus sanguineus in-vitro contact test, adult brown dog ticks (RHIPSA Cont); conditions: 48 h, after 48 hours, read-out: activity (efficacy: 100% means all ticks are dead or moribund); for pest or weed control at 1 µg/cm2, 100 g/ha: application rate 1 μg/cm^2 (=100 g/ha); for pest or weed control at 5 µg/cm2, 500 g/ha: application rate 5 μg/cm^2 (=500 g/ha)
Description: Rhipicephalus sanguineus-In-Vitro Contact Tests with Adult Brown Dog Ticks ([…] Cont) 9 mg compound is solved in 1 mL acetone and diluted with acetone to the desired concentration. 250 μL of the test solution is filled in 25 mL glass test tubes and homogeneously distributed on the inner walls by rotation and tilting on a shaking device (2 h at 30 rpm). […] After 48 hours efficacy is determined. The ticks are patted on the ground of the tubes and are incubated on a heating plate at 45-50° C. for at most 5 minutes. Immotile or uncoordinated moving ticks, which are not able to escape the heat by climbing upwards, are marked as dead or moribund.

## CC(NC(=O)c1cc(C(F)(F)F)cc(C(F)(F)F)c1)c1nc(Br)nn1-c1ccc(C#N)cn1 (racemic) [I-48, 3,5-di(trifluoromethyl)-N-{1-[3-bromo-1-(3-cyano-pyridin-6-yl)-1H-1,2,4-triazol-5-yl]ethyl}-benzamide]
Spodoptera frugiperda
  mortality at 100 g/ha: 100%
Rhipicephalus microplus [1]
  pest or weed control at 0.004 mg: 100%
Diabrotica balteata
  pest or weed control at 32 µg/disc, 100 g/ha: 100%
Rhipicephalus microplus [2]
  pest or weed control at 5 µg/cm2: 100%
Ctenocephalides felis
  mortality at 100 ppm: 100%
Myzus persicae
  mortality at 4 ppm: 90%

## COc1nc([C@H](C)NC(=O)c2cc(Cl)cc(C(F)(F)F)c2)n(-c2ccc(C#N)cn2)n1 [I-10, 3-chloro-N-{(1S)-1-[1-(5-cyanopyridin-2-yl)-3-methoxy-1H-1,2,4-triazol-5-yl]ethyl}-5-(trifluoromethyl)benzamide]
Spodoptera frugiperda
  mortality at 100 g/ha: 100%
  mortality at 500 g/ha: 100%
[3]
  mortality at 20 mg/m2: 80 to 100%
Rhipicephalus microplus [1]
  pest or weed control at 0.004 mg: 100%
  pest or weed control at 0.02 mg: 100%
Diabrotica balteata
  pest or weed control at 32 µg/disc, 100 g/ha: 100%
Diabrotica balteata; application rate 500 g/ha (=160 μg/well)
  pest or weed control at 160 µg/disc, 500 g/ha: 100%
Rhipicephalus microplus [2]
  pest or weed control at 5 µg/cm2: 100%
Ctenocephalides felis
  mortality at 100 ppm: 100%
Myzus persicae
  mortality at 4 ppm: 100%

## CC(C)c1nc([C@H](C)NC(=O)c2cncc(Br)c2)n(-c2ccc(C#N)cn2)n1 [I-27]
Rhipicephalus microplus [1]
  pest or weed control at 0.004 mg: 100%
  pest or weed control at 0.02 mg: 100%
Rhipicephalus microplus [2]
  pest or weed control at 5 µg/cm2: 90%
Ctenocephalides felis
  mortality at 100 ppm: 100%
[4]
  mortality at 20 mg/m2: 80 to 100%
Rhipicephalus sanguineus
  pest or weed control at 1 µg/cm2, 100 g/ha: 100%
  pest or weed control at 5 µg/cm2, 500 g/ha: 100%

## C[C@H](NC(=O)c1cc(Br)cc(C(F)(F)F)c1)c1nc(C2CC2)nn1-c1ccc(C#N)cn1 [I-31]
[3]
  mortality at 20 mg/m2: 80 to 100%
Rhipicephalus microplus [1]
  pest or weed control at 0.004 mg: 100%
  pest or weed control at 0.02 mg: 100%
Diabrotica balteata
  pest or weed control at 32 µg/disc, 100 g/ha: 100%
Rhipicephalus microplus [2]
  pest or weed control at 5 µg/cm2: 100%
Ctenocephalides felis
  mortality at 100 ppm: 100%
Myzus persicae
  mortality at 4 ppm: 100%
Rhipicephalus sanguineus
  pest or weed control at 5 µg/cm2, 500 g/ha: 80%

## C[C@H](NC(=O)c1cc(Cl)cc(Br)c1)c1nc(C2CC2)nn1-c1ccc(C#N)cn1 [I-32]
Spodoptera frugiperda
  mortality at 100 g/ha: 100%
Rhipicephalus microplus [1]
  pest or weed control at 0.004 mg: 100%
  pest or weed control at 0.02 mg: 100%
Diabrotica balteata
  pest or weed control at 32 µg/disc, 100 g/ha: 100%
Rhipicephalus microplus [2]
  pest or weed control at 5 µg/cm2: 100%
Ctenocephalides felis
  mortality at 100 ppm: 100%
Myzus persicae
  mortality at 4 ppm: 100%
Rhipicephalus sanguineus
  pest or weed control at 1 µg/cm2, 100 g/ha: 80%
  pest or weed control at 5 µg/cm2, 500 g/ha: 100%

## C[C@H](NC(=O)c1cc(Cl)cc(OC(F)F)c1)c1nc(C2CC2)nn1-c1ccc(C#N)cn1 [I-34]
Spodoptera frugiperda
  mortality at 100 g/ha: 100%
[3]
  mortality at 20 mg/m2: 80 to 100%
Rhipicephalus microplus [1]
  pest or weed control at 0.004 mg: 100%
  pest or weed control at 0.02 mg: 100%
Diabrotica balteata
  pest or weed control at 32 µg/disc, 100 g/ha: 100%
Rhipicephalus microplus [2]
  pest or weed control at 5 µg/cm2: 90%
Ctenocephalides felis
  mortality at 100 ppm: 100%

## C[C@H](NC(=O)c1cc(Br)cc(C#N)c1)c1nc(C2CC2)nn1-c1ccc(C#N)cn1 [I-35]
[3]
  mortality at 20 mg/m2: 80 to 100%
Rhipicephalus microplus [1]
  pest or weed control at 0.004 mg: 100%
  pest or weed control at 0.02 mg: 100%
Diabrotica balteata
  pest or weed control at 32 µg/disc, 100 g/ha: 100%
Rhipicephalus microplus [2]
  pest or weed control at 5 µg/cm2: 100%
Ctenocephalides felis
  mortality at 100 ppm: 100%
[4]
  mortality at 20 mg/m2: 80 to 100%

## Cc1nc([C@H](C)NC(=O)c2cncc(Br)c2)n(-c2ccc(C#N)cn2)n1 [II-49]
Rhipicephalus microplus [1]
  pest or weed control at 0.004 mg: 100%
  pest or weed control at 0.02 mg: 100%
Diabrotica balteata
  pest or weed control at 32 µg/disc, 100 g/ha: 100%
Rhipicephalus microplus [2]
  pest or weed control at 5 µg/cm2: 100%
Ctenocephalides felis
  mortality at 100 ppm: 100%
[4]
  mortality at 4 mg/m2: 80 to 100%
Rhipicephalus sanguineus
  pest or weed control at 5 µg/cm2, 500 g/ha: 100%

## CC[C@H](NC(=O)c1cc(Cl)cc(C(F)(F)F)c1)c1ncnn1-c1ncc(OC(F)F)cn1 [II-64]
Spodoptera frugiperda
  mortality at 100 g/ha: 100%
Rhipicephalus microplus [1]
  pest or weed control at 0.004 mg: 100%
  pest or weed control at 0.02 mg: 100%
Diabrotica balteata
  pest or weed control at 32 µg/disc, 100 g/ha: 100%
Rhipicephalus microplus [2]
  pest or weed control at 5 µg/cm2: 100%
Ctenocephalides felis
  mortality at 100 ppm: 100%
[4]
  mortality at 20 mg/m2: 80 to 100%
Rhipicephalus sanguineus
  pest or weed control at 5 µg/cm2, 500 g/ha: 80%

## C[C@H](NC(=O)c1cc(Br)c(F)c(Br)c1)c1ncnn1-c1ccc(C#N)cn1 [II-82]
Spodoptera frugiperda
  mortality at 100 g/ha: 100%
Rhipicephalus microplus [1]
  pest or weed control at 0.004 mg: 100%
Diabrotica balteata
  pest or weed control at 32 µg/disc, 100 g/ha: 80%
Rhipicephalus microplus [2]
  pest or weed control at 5 µg/cm2: 100%
Ctenocephalides felis
  mortality at 100 ppm: 100%
[4]
  mortality at 4 mg/m2: 80 to 100%
  mortality at 20 mg/m2: 80 to 100%
Rhipicephalus sanguineus
  pest or weed control at 1 µg/cm2, 100 g/ha: 80%
  pest or weed control at 5 µg/cm2, 500 g/ha: 80%

From patent US20220274947A1, “NOVEL HETEROARYL-TRIAZOLE COMPOUNDS AS PESTICIDES” (Bayer Aktiengesellschaft, priority 2019, published 2022)
